Data taken from patent publication US20250011792A1, “IRAP INHIBITORS FOR USE IN THE TREATMENT OF INFLAMMATORY DISEASES” (INSTITUT NATIONAL DE LA SANTÉ ET DE LA RECHERCHE MÉDICALE, priority 2021, published 2025).

Columns and labels:
IRAP [1] = molecular target: T1, IRAP (Mus musculus, UniProt Q8C129); assay: Intracellular flow cytometry staining of IRAP expression after HFI-419 treatment; assay type: cell-based; settings: starting from 24 h of treatment, data not shown
T1 construct: endogenous in cells; host or cells: primary mouse mast cells (BMMC / peritoneal cell-derived mast cells) from wt mice
T1 sequence (Q8C129 1-1025): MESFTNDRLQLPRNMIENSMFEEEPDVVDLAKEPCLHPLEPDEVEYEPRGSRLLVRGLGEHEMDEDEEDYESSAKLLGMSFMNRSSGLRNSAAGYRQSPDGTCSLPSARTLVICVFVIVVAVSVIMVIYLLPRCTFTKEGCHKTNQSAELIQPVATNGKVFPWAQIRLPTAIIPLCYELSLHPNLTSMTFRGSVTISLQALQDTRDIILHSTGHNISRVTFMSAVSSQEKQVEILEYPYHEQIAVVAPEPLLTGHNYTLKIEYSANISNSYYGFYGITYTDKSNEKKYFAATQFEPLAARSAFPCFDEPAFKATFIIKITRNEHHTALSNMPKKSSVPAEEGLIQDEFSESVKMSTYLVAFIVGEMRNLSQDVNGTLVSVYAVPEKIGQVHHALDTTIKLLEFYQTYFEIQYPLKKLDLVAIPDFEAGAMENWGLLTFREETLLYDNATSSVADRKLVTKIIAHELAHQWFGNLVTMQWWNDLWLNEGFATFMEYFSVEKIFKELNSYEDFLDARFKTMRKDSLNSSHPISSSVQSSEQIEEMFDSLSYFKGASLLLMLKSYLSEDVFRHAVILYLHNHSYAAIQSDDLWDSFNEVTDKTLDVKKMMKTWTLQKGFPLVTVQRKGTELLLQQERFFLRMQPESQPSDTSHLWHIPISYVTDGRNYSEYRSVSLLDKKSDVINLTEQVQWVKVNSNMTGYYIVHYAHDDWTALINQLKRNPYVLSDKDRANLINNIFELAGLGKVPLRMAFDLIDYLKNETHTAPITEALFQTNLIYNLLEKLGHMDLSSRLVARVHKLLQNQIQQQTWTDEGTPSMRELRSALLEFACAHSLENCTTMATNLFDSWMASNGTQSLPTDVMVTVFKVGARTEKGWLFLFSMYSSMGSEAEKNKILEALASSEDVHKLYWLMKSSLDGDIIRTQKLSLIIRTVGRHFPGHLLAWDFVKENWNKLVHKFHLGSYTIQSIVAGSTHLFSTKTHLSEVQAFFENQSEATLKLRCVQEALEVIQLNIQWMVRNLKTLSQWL
Procedure: (§1) For TNF-α surface staining, PCMCs were stimulated with 1 μM ionomycin/10 nM PMA or 100 ng/ml LPS at 37° C. for 4 h in the presence of TAPI-1, washed with ice-cold PBS, and incubated at 4° C. with Fcblock (Miltenyi) followed by fluorochrome-conjugated CD117, FcεRI and TNF-α antibodies diluted in PBS-1% BSA. Intracellular staining of cytokines, IRAP and VAMP3 was performed using the BD intracellular staining kit and suitable species-specific fluorescent secondary antibodies (Life technologies).
(§2) Vehicle or inhibitor at a dose of 1 μmol/kg was administered intravenously at 24 h and 15 min prior to the ear challenge. […] We therefore hypothesized that in addition to blocking its catalytic activity, HI-419 may also affect the stability of IRAP.

mast cells = assay: Cytokine secretion by mast cells treated with IRAP inhibitors for 24 h before ionomycin/PMA activation; assay type: cell-based, mouse; settings: mast cells treated for 24 h prior to ionomycin/PMA activation; data not shown
Procedure: PCMCs were stimulated with 1 uM ionomycin/10 nM PMA or 100 ng/ml LPS at 37° C. for 6 h for cytokine secretion or with ionomycin/PMA or 10 ug/ml 48/80 for 30 min for histamine measurement.
(§3) Supernatants were collected and histamine was quantified using the Histamine Dynamic HTRF kit (Cisbio). TNF-α, IL-6, or IL-10 were quantified using specific cytokine ELISA kits. Kits were used according to the manufacturer's instructions.
Considering the aminopeptidase function of TRAP, we wondered if its catalytic activity was required for efficient cytokine secretion. To test this, we treated mast cells with the IRAP inhibitors HFI-419, 4u 55 and 22b (a gift from E. Stratikos) for 24 h prior to ionomycin/PMA activation.

VAMP3 = assay: Intracellular flow cytometry staining of VAMP3 expression after HFI-419 treatment; assay type: cell-based, mouse; settings: starting from 24 h of treatment, data not shown
Procedure: as §1, §2

IRAP wt mice = assay: Mouse ear challenge with arachidonic acid, cytokines quantified in ear tissue homogenates; assay type: in vivo; settings: 1 μmol/kg intravenously at 24 h and 15 min prior to ear challenge; ear tissue homogenates normalized to total protein; FIG. 3
Procedure: IRAP wt mice were injected i.v. with 6 μg HI-419 or vehicle 24 h and 15 min prior to ear challenge. Cytokine concentrations were quantified in ear tissue homogenates and normalized to total protein concentration.
Twenty microliters arachidonic acid (AA) (30 mg/ml in acetone) were applied to the inner and outer surface of one mouse ear, whereas the other ear was left untreated.
One hour after AA application, mice were sacrificed and ears were collected. The ear biopsies were dissociated using the pre-set “Protein” protocol of gentleMACS™ Octo Dissociator (Milteniy Biotec) in 800 μl ice-cold homogenization buffer [(PBS containing 0.4M NaCl, 0.05% Tween-20, 10 mM EDTA and protease inhibitor cocktail complete (Roche)]. The homogenates were cleared by 10 min centrifugation at 5000×g, and the total protein concentration determined in a BCA assay. Histamine or cytokines in the supernatant were quantified as described below.
as §3, §2

wt cells (mast cells) = assay: TNF-α secretion in the presence of endocytosis inhibitors; assay type: cell-based, mouse; settings: wt versus IRAPko cells; data not shown
IRAP [2] = assay: Subcellular localization of IRAP under endocytosis inhibition after LPS activation; assay type: cell-based, mouse; settings: after three hours of LPS activation; data not shown

expression level of IRAP (IRAP [1]) | expression level of IRAP (IRAP [1]; listed as HI-419) | Compound | inhibition of IRAP-dependent cytokine secretion in vitro (mast cells) | expression level of VAMP3 (VAMP3) | IL-6 secretion in challenged ear versus vehicle-treated animals (IRAP wt mice) | IL-10 secretion in challenged ear versus vehicle-treated animals (IRAP wt mice) | TNF-α secretion in challenged ear versus vehicle-treated animals (IRAP wt mice) | TNF-α secretion (wt cells (mast cells)) | IRAP subcellular localization (re-internalization) (IRAP [2])
decreased expression levels | reduced | CCOC(=O)C1=C(NC(C)=O)Oc2cc(O)ccc2C1c1cccnc1 (racemic) [HFI-419, (±)-Ethyl-2-acetamido-7-hydroxy-4-(pyridin-3-yl)-4H-chromene-3-carboxylate] | significant inhibition | decreased expression levels | significantly less | unaffected | significantly less |  | 
 |  | CS(=O)(=O)N1CCN(Cc2cc3nc(-c4cccc5[nH]ncc45)nc(N4CCOCC4)c3s2)CC1 [GDC-0941] |  |  |  |  |  | reduce TNF-α secretion specifically in wt cells | 
 |  | O=C(N/N=C/c1ccc(O)c(O)c1)c1cc2ccccc2cc1O [dynasore] |  |  |  |  |  | reduce TNF-α secretion specifically in wt cells | strong plasma membrane staining
